These results are taken from publication PMC5603267 (Cell metabolism, 2017).

SMILES strings stand for the structures. pIC50: −log10 of the molar value.

Assay [1] addresses acetyl-CoA carboxylase 1 (ACC1) (Homo sapiens, UniProt Q13085). Kind of assay: purified ACC incubated with MK-4074, ATP, acetyl-CoA and NaH14CO3. It is filed as biochemical.
Assay [2] concerns the target acetyl-CoA carboxylase 2 (ACC2) (Homo sapiens, UniProt O00763). The description is as above. Format: biochemical.

acetyl-CoA carboxylase 2 (ACC2), sequence (O00763 whole entry): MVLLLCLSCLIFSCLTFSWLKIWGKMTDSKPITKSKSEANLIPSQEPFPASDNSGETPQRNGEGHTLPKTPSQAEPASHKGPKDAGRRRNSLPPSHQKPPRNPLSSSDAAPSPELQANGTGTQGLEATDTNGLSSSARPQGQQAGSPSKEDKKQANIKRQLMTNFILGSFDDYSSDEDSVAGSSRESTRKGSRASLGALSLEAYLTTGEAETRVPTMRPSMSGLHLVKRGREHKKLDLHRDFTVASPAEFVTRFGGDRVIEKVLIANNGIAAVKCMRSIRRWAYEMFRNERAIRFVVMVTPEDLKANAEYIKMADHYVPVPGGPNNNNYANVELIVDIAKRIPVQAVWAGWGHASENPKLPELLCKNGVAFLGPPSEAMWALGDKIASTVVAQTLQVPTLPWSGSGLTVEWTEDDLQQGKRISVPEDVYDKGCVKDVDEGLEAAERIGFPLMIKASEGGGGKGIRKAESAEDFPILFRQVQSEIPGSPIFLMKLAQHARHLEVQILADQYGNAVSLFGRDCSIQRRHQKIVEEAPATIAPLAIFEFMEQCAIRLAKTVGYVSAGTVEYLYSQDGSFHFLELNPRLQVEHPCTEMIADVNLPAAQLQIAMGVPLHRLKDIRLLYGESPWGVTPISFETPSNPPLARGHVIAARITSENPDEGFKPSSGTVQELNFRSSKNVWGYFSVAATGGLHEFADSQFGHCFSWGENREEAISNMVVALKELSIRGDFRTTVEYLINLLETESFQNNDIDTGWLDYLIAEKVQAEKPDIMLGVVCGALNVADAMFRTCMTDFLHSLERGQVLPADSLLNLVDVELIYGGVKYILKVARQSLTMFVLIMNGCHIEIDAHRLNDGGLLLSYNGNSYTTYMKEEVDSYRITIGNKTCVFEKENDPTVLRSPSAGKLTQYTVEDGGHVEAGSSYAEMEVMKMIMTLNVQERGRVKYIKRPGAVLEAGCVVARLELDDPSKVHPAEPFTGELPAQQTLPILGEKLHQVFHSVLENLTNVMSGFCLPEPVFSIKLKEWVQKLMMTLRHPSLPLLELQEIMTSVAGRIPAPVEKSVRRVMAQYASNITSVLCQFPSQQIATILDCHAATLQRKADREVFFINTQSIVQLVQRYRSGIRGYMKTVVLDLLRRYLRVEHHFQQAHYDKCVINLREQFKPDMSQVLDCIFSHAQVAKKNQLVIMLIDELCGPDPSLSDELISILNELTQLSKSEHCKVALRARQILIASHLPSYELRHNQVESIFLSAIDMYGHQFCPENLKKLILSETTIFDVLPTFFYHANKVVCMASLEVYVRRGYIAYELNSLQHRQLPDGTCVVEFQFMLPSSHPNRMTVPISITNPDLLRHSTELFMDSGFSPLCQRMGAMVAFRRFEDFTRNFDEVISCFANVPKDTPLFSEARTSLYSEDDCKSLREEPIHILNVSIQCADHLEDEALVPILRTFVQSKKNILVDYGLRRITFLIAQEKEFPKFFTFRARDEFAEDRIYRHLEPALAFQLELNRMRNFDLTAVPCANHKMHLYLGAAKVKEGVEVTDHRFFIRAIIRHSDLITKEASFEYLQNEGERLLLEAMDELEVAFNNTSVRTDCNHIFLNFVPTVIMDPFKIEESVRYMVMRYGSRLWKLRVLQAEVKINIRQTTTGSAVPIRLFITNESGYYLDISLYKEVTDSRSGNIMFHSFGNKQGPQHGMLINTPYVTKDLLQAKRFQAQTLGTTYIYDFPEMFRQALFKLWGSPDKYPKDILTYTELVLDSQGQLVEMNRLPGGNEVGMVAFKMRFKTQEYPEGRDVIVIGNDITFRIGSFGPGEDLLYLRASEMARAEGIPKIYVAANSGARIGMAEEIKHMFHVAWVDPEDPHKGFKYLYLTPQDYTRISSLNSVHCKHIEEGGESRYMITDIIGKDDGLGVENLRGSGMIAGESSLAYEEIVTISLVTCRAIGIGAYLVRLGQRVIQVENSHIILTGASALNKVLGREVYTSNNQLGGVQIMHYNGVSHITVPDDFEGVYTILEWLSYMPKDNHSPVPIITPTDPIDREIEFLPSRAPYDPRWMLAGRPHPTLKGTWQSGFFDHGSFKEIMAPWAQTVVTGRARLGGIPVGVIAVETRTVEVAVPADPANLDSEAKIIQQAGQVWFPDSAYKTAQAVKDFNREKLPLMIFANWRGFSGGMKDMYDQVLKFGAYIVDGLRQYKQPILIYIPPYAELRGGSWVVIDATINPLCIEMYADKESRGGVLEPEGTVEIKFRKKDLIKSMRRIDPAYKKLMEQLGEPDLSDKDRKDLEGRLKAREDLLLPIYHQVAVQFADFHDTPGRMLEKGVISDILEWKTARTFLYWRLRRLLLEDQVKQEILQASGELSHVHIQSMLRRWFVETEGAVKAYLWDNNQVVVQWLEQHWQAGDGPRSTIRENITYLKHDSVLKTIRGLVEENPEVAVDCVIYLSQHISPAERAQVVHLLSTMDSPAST

As to `COc1cc(C(=O)N2CCC3(CC2)CC(=O)c2cc(-c4cncc(C(=O)O)c4)ccc2O3)cc2c1c(C)cn2C1CC1` [MK-4074], the pIC50 in assay [1] and in assay [2] was about 8.52 in each case.
